Biological target: T1, HCV1b NS5B polymerase delta 21 (Hepatitis C virus genotype 1b, UniProt P26663)
T1 construct: purified HCV1b NS5B polymerase delta 21
Experiment: RNA-dependent RNA HCV NS5B (polymerase) assay and IC50 determination
Format: biochemical
Details: not given
Experimental: Example 212—RNA-Dependent RNA HCV NS5B (Polymerase) Assay and IC50 Determination
In vitro RNA-dependent RNA polymerase activity was determined in a reaction mixture (50 μL) containing 50 mM Tris-HCl, pH 7.5, 5 mM MgCl2, 1 mM dithiothreitol, 0.5% Triton® X-100, 10 μM of UTP, 0.1-0.5 μCi of α-^32P UTP (Perkin Elmer Life Sciences), 1 μg of polyA:U16 (Midland Oligo), and 0.6 μg of purified HCV1b NS5B polymerase delta 21. Different concentrations of compounds were added to the reaction mixtures. The reaction was carried out at RT (23° C.) for 60 min and then stopped by the addition of 100 μL of 50 mM EDTA. The reaction mixtures were filtered through either a DE81 membrane or a positively charged nylon membrane, and the membranes were then extensively washed with 30 mM sodium citrate, pH 7.0 and 300 mM NaCl. The radiolabeled RNA products were quantitated using a Storm™ PhosphorImager™ (GE life Sciences). IC50 values were calculated using GraFit 6 and GraphPad Prism 5 from triplicate assays.

T1 sequence (P26663 2420-2989): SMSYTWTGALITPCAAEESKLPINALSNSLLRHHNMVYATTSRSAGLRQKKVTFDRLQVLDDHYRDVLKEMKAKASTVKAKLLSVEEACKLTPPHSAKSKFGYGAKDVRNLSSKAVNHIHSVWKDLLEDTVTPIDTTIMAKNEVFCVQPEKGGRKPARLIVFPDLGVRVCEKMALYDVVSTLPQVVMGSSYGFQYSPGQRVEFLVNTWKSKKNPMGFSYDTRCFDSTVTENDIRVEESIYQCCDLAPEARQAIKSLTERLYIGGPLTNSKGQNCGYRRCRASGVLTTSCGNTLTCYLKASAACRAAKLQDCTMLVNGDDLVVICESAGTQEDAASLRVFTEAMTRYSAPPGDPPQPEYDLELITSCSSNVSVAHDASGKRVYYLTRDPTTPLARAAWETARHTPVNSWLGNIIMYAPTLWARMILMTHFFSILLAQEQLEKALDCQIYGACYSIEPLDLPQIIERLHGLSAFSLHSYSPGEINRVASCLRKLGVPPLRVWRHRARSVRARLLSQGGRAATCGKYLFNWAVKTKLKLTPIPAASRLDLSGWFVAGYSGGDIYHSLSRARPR

Compound	IC50
COc1cc(-c2cc(C3=C(C4CCC(C)CC4)CN(C)CC3)c(C(=O)O)s2)ccc1NC(=O)c1cscn1 (centres unmarked) [Example 179, 5-(3-methoxy-4-(thiazole-4-carboxamido)phenyl)-3-(1-methyl-5-(4-methylcyclohexyl)-1,2,3,6-tetrahydropyridin-4-yl)thiophene-2-carboxylic acid]	< 3 µM
CCc1cc(-c2cc(C3=C(C4CCC(C)CC4)CN(C)CC3)c(C(=O)O)s2)ccc1NC(=O)c1cscn1 (centres unmarked) [Example 181, 5-(3-ethyl-4-(thiazole-4-carboxamido)phenyl)-3-(1-methyl-5-(4-methylcyclohexyl)-1,2,3,6-tetrahydropyridin-4-yl)thiophene-2-carboxylic acid]	< 3 µM
CC1CCC(C2=C(c3cc(-c4ccc(NC(=O)c5cscn5)c(Cl)c4)sc3C(=O)O)CCN(C)C2)CC1 (centres unmarked) [Example 182, 5-(3-chloro-4-(thiazole-4-carboxamido)phenyl)-3-(1-methyl-5-(4-methylcyclohexyl)-1,2,3,6-tetrahydropyridin-4-yl)thiophene-2-carboxylic acid]	< 3 µM
COc1ccn2nc(-c3ccc(-c4cc(C5=C(C6CCC(C)CC6)CN(C)CC5)c(C(=O)O)s4)cc3)cc2n1 (centres unmarked) [Example 184, 5-(4-(5-methoxypyrazolo[1,5-a]pyrimidin-2-yl)phenyl)-3-(1-methyl-5-(4-methylcyclohexyl)-1,2,3,6-tetrahydropyridin-4-yl)thiophene-2-carboxylic acid]	< 3 µM

System: HCV1b replicon
Experiment: HCV replicon assay (Huh-7 cell line with HCV1b replicon containing luciferase reporter) and EC50 determination
Format: cell-based
Details: Hepatitis C virus; Table 1; Huh-7 HCV1b replicon luciferase reporter, 72 hr, triplicate
Experimental: Example 213—HCV Replicon Assay and EC50 Determination
The antiviral activity of compounds against hepatitis C virus was determined by a hepatitis C virus replicon reporter cell line developed by Bartenschlager (Lohmann et al., Science 1999, 285:110-113; Bartenschlager et al., Antiviral Res 2003, 60:91-102). This cell-based assay utilized a liver cell carcinoma (Huh-7) cell line stably transformed with an HCV1b replicon containing a luciferase reporter gene. Varied concentrations of compounds were added to the reporter cell line, and further incubated at 37° C. for 72 hr in DMEM supplemented with 10% FCS. The inhibitory effects of experimental compounds or the reference compound, interferon alpha (INFα), on HCV replication were measured by luciferase activity using the Britelite™ plus luminescence reporter gene kit (Perkin Elmer, Shelton, Conn.). The Britelite plus reagent was added to the 96-well plates containing the HCV reporter cells, and luminescence was measured within 15 min using a Wallac 1450 Microbeta® Trilux liquid scintillation counter. EC50 values were calculated using GraFit 6 and GraphPad Prism 5 from triplicate HCV replicon assays.

Compound	EC50
Cc1cc(-c2cc(C3=C(C4CCC(C)CC4)CN(C)CC3)c(C(=O)O)s2)ccc1NC(=O)c1cscn1 (centres unmarked) [Example 178, 5-(3-methyl-4-(thiazole-4-carboxamido)phenyl)-3-(1-methyl-5-(4-methylcyclohexyl)-1,2,3,6-tetrahydropyridin-4-yl)thiophene-2-carboxylic acid]	< 3 µM
CC1CCC(C2=C(c3cc(-c4ccc(NC(=O)c5cscn5)c(C#N)c4)sc3C(=O)O)CCN(C)C2)CC1 (centres unmarked) [Example 180, 5-(3-cyano-4-(thiazole-4-carboxamido)phenyl)-3-(1-methyl-5-(4-methylcyclohexyl)-1,2,3,6-tetrahydropyridin-4-yl)thiophene-2-carboxylic acid]	< 3 µM
CC1CCC(C2=C(c3cc(-c4ccc(NC(=O)c5cscn5)c(C(F)(F)F)c4)sc3C(=O)O)CCN(C)C2)CC1 (centres unmarked) [Example 183, 3-(1-methyl-5-(4-methylcyclohexyl)-1,2,3,6-tetrahydropyridin-4-yl)-5-(4-(thiazole-4-carboxamido)-3-(trifluoromethyl)phenyl)thiophene-2-carboxylic acid]	< 3 µM
CC1CCC(C2=C(c3cc(-c4ccc(-c5cc6n(C)c(=O)ccn6n5)cc4)sc3C(=O)O)CCN(C)C2)CC1 (centres unmarked) [Example 185, 3-(1-methyl-5-(4-methylcyclohexyl)-1,2,3,6-tetrahydropyridin-4-yl)-5-(4-(4-methyl-5-oxo-4,5-dihydropyrazolo[1,5-a]pyrimidin-2-yl)phenyl)thiophene-2-carboxylic acid]	< 3 µM
Cc1cc(-c2cc(C3=C(C4CCC(C)CC4)CCN(C)C3)c(C(=O)O)s2)ccc1NC(=O)c1cscn1 (centres unmarked) [Example 196, 3-(1-methyl-4-(4-methylcyclohexyl)-1,2,5,6-tetrahydropyridin-3-yl)-5-(3-methyl-4-(thiazole-4-carboxamido)phenyl)thiophene-2-carboxylic acid]	< 3 µM
Cc1cc(-c2cc(C3=C(C4CCC(C)CC4)CCN(CCO)C3)c(C(=O)O)s2)ccc1NC(=O)c1cscn1 (centres unmarked) [Example 197, 3-(1-(2-hydroxyethyl)-4-(4-methylcyclohexyl)-1,2,5,6-tetrahydropyridin-3-yl)-5-(3-methyl-4-(thiazole-4-carboxamido)phenyl)thiophene-2-carboxylic acid]	< 3 µM
CN1CCC(c2cc(-c3ccc(NC(=O)c4cscn4)cc3)sc2C(=O)O)=C(c2ccc(Cl)cc2Cl)C1 [Example 201, 3-(5-(2,4-dichlorophenyl)-1-methyl-1,2,3,6-tetrahydropyridin-4-yl)-5-(4-(thiazole-4-carboxamido)phenyl)thiophene-2-carboxylic acid]	< 3 µM
Cc1ccc(C2=C(c3cc(-c4ccc(NC(=O)c5cscn5)cc4)sc3C(=O)O)CCN(C)C2)cc1 [Example 202, 3-(1-methyl-5-(p-tolyl)-1,2,3,6-tetrahydropyridin-4-yl)-5-(4-(thiazole-4-carboxamido)phenyl)thiophene-2-carboxylic acid]	< 3 µM
CC1CCC(C2=C(c3cc(-c4ccc(NC(=O)c5cscn5)nc4)sc3C(=O)O)CCN(C)C2)CC1 (centres unmarked) [Example 204, 3-(1-methyl-5-(4-methylcyclohexyl)-1,2,3,6-tetrahydropyridin-4-yl)-5-(6-(thiazole-4-carboxamido)pyridin-3-yl)thiophene-2-carboxylic acid]	< 3 µM

Same assay, conditions: Hepatitis C virus; Table 2; Huh-7 HCV1b replicon luciferase reporter, 72 hr, triplicate

Compound	EC50
CC1CCC(C2=C(c3cc(-c4ccc(NC(=O)c5cscn5)cc4)sc3C(=O)O)CN(CCO)CC2)CC1 (centres unmarked) [Example 188, 3-(1-(2-hydroxyethyl)-4-(4-methylcyclohexyl)-1,2,5,6-tetrahydropyridin-3-yl)-5-(4-(thiazole-4-carboxamido)phenyl)thiophene-2-carboxylic acid]	< 3 µM
CC1CCC(C2=C(c3cc(-c4ccc(-c5cc6ncccn6n5)cc4)sc3C(=O)O)CN(CCO)CC2)CC1 (centres unmarked) [Example 191, 3-(1-(2-hydroxyethyl)-4-(4-methylcyclohexyl)-1,2,5,6-tetrahydropyridin-3-yl)-5-(4-(pyrazolo[1,5-a]pyrimidin-2-yl)phenyl)thiophene-2-carboxylic acid]	< 3 µM
CC1CCC(C2=C(c3cc(-c4ccc(-c5cc6ncccn6n5)cc4)sc3C(=O)O)CN(CC(O)CO)CC2)CC1 (centres unmarked) [Example 192, 3-(1-(2,3-dihydroxypropyl)-4-(4-methylcyclohexyl)-1,2,5,6-tetrahydropyridin-3-yl)-5-(4-(pyrazolo[1,5-a]pyrimidin-2-yl)phenyl)thiophene-2-carboxylic acid]	< 3 µM
CC1CCC(C2=C(c3cc(-c4ccc(NC(=O)c5cscn5)cc4)sc3C(=O)O)CN(Cc3cnn(C)c3)CC2)CC1 (centres unmarked) [Example 193, 3-(1-((1-methyl-1H-pyrazol-4-yl)methyl)-4-(4-methylcyclohexyl)-1,2,5,6-tetrahydropyridin-3-yl)-5-(4-(thiazole-4-carboxamido)phenyl)thiophene-2-carboxylic acid]	< 3 µM
CC1CCC(C2=C(c3cc(-c4ccc(-c5cc6ncccn6n5)cc4)sc3C(=O)O)CN(Cc3cnn(C)c3)CC2)CC1 (centres unmarked) [Example 194, 3-(1-((1-methyl-1H-pyrazol-4-yl)methyl)-4-(4-methylcyclohexyl)-1,2,5,6-tetrahydropyridin-3-yl)-5-(4-(pyrazolo[1,5-a]pyrimidin-2-yl)phenyl)thiophene-2-carboxylic acid]	< 3 µM
Cc1nn(C)cc1CN1CCC(C2CCC(C)CC2)=C(c2cc(-c3ccc(NC(=O)c4cscn4)cc3)sc2C(=O)O)C1 (centres unmarked) [Example 195, 3-(1-((1,3-dimethyl-1H-pyrazol-4-yl)methyl)-4-(4-methylcyclohexyl)-1,2,5,6-tetrahydropyridin-3-yl)-5-(4-(thiazole-4-carboxamido)phenyl)thiophene-2-carboxylic acid]	< 3 µM
CN1CCC(c2cc(-c3ccc(NC(=O)c4cscn4)cc3)sc2C(=O)O)=C(C2CCCCC2)C1 [Example 205, 3-(5-Cyclohexyl-1-methyl-1,2,3,6-tetrahydro-pyridin-4-yl)-5-{4-[(thiazole-4-carbonyl)-amino]-phenyl}-thiophene-2-carboxylic acid]	< 3 µM

Source: patent US10426762B2, “Inhibitors of hepatitis C virus polymerase” (COCRYSTAL DISCOVERY, INC., priority 2012, dated 2019)
